Legend:
dopamine D1 receptor = molecular target: T1, dopamine D1 receptor (Homo sapiens, UniProt P21728); assay: cAMP HTRF potentiation assay (in the presence of dopamine); assay type: cell-based; settings: potentiation of cAMP with [EC20] of dopamine (1.1 nM); LMtk (Ltk−) mouse fibroblast cells expressing the dopamine D1 receptor
T1 construct: host or cells: LMtk (Ltk-) mouse fibroblast cells, kept under Geneticin
Protocol: The potentiation assay measures the ability of compounds to increase the levels of cAMP produced by a low-threshold concentration of dopamine. The concentration of dopamine used ([EC20]) is designed to produce 20% stimulation compared to the maximal response (100%) seen with increasing the concentration of dopamine. To measure this potentiation we incubate increasing concentrations of the compound with the [EC20] of dopamine and measure the potentiation as increases in cAMP production. The pEC50 of a compound is the −log 10 of the concentration of the compound which produces 50% of the potentiation of the cAMP levels and the Erel is the relative efficacy, defined as the maximal % potentiation produced by the compound compared to the maximal response produced by increasing concentrations of dopamine (Erel of 1=dopamine maximum response).
Cells were cultured at 37° C. in a humidified atmosphere of 5% CO2. Cells were grown in DMEM-F12+GlutaMAX™-1 medium (GIBCO®, Invitrogen, Merelbeke, Belgium) containing 10% fetal bovine serum (BioWhittaker®, Lonza, Verviers, Belgium), 400 μg/mL Geneticin (GIBCO®), 100 IU/mL Penicillin and 100 IU/mL Streptomycin (Pen-Strep solution, BioWhittaker®).
The measurement of changes in intracellular cyclic adenosinemonophopshpate (cAMP) was determined using the HTRF cAMP dynamic assay kit from CisBio (Codolet, France). Using homogenous time-resolved fluoresence technology, the assay is based on competition between native cAMP produced by cells and cAMP labelled with the dye d2. The tracer binding is determined by an anti-cAMP antibody labeled with cryptate. The effects of the compound alone (agonism) was determined by performing the assay in the absence of dopamine, whilst the effect of the compound as a positive allosteric modulator (PAM) was determined in the presence of an EC20 concentration of dopamine. Cells (20,000 per well) are incubated in 384 plates for 1 h at rt in a final volume of 20 μLHBSS (Lonza, with calcium, magnesium and HEPES buffer 20 mM, pH 7.4) containing: isobutyl methylxanthine (Sigma, 0.1 mM final), varying concentrations of test compound (typically 10^−9.5 M to 10^−4.5 M) in the presence and absence of dopamine (1.1 nM final). The reaction is then terminated and the cells lysed by adding the d2 detection reagent in lysis buffer (10 μL) and the cryptate reagent in lysis buffer (10 μL) according to manufacturer's instructions. This is then incubated for a further 60 min at rt and changes in HTRF fluorescent emission ratio determined according to manufacturer's instructions using an Envision plate reader (Perkin Elmer, Zaventem, Belgium) with laser excitation. All incubations were performed in duplicate and results were compared to a concentration-effect curve to dopamine. (10^−11 M to 10^−6 M).
Data was analyzed using Excel and PRISM (GraphPad Software) to obtain pEC50 and Erel using the 4-parameter logistic equation (DeLean et al, 1978) where Erel is the fitted maximal response of the test compound minus basal expressed as a percentage relative to that obtained with dopamine which was defined as 100%.

[1] = molecular target: T2, human GABAA receptor α1β2 and γ2 subunits (Homo sapiens, UniProt P14867+P18507+P47870); assay: Automated patch clamp studies on the GABAA receptor cells; assay type: cell-based; settings: 15 μM GABA, Table B; for inhibition at 10 µM: CHO-K1, 10 μM compound; for % GABAA inhibition: 10 μM compound, CHO-K1 cells
T2 construct: expressed in transfected cells
Protocol: CHO-K1 cells stably expressing human GABAA receptor α1β2 and γ2 subunits were used. The cells were harvested using trypsin and maintained in serum-free medium at room temperature. The cells were washed and re-suspended in extracellular solution before testing.
Experiments on human GABAA (α1β2γ2) channels were conducted using an automated patch clamp assay (lonFlux™ HT). The external solution for recording GABAA currents was composed of sodium chloride 137 mM, potassium chloride 4 mM, calcium chloride 1.8 mM, magnesium chloride 1 mM, HEPES 10 mM, and glucose 10 mM. Both external and internal solutions were titrated with NaOH or KOH to obtain a pH of 7.35 and 7.3, respectively. The internal pipette solution contained potassium fluoride 70 mM, potassium chloride 60 mM, sodium chloride 70 mM, HEPES 5 mM, EGTA 5 mM, and Magnesium ATP 4 mM. The final concentration of vehicle used to dilute compounds was 0.33% DMSO in each well. Bicuculline (0.032 to 100 μM) was used as positive control inhibitor. GABA (15 μM) was used as agonist. All recordings were obtained from a holding potential of −60 mV.
The compound addition sequence was the following: one addition of the EC80 concentration of GABA was added to establish baseline response. Each concentration of compound was applied for 30 seconds followed by the addition of 15 μM GABA in the presence of the compound for 2 seconds. The process was repeated with the next ascending concentration of compound. Peak inward currents in response to the GABA additions in the presence of a single concentration of compound were measured. All compound data have been normalized to the baseline peak current induced by addition of 15 μM GABA for 2 seconds.

CYP3A4 = molecular target: T3, CYP3A4 (Homo sapiens, UniProt P08684); assay: In vitro assessment of CYP3A4 inhibition potential using cryopreserved human microsomes; assay type: in vitro ADME; settings: 20 μM compound, human microsomes 0.25 mg/ml, Table C; for inhibition at 15 min, 20 μM: human, cryopreserved human microsomes (pooled donors), probe midazolam 2.5 μM (1-hydroxymidazolam formation); for % CYP3A4 inhibition: midazolam 2.5 μM
T3 construct: cryopreserved human microsomes (pooled donors); from tissue
Protocol: The objective of the human microsome assay is to characterize the inhibition potential of Compound of formula (I) by measuring the CYP3A4 activities after its co-incubation with midazolam, a specific CYP3A4 substrate.
To this aim, cryopreserved human microsomes (pooled donors) are divided on a 48 well collagen coated plate so that the final concentration is 0.25 mg/ml. The UCB compound is then added in the wells at 20 μM concentration in duplicate. After 30 min incubation, midazolam is added at 2.5 μM concentration. After 15 min, an aliquot is removed and placed into an equal volume of methanol containing internal standard. The samples are centrifuged at 2500 rpm at 4° C. for 20 min. An aliquot of supernatant is diluted with deionised water and levels of 1-hydroxymidazolam is quantified using generic LC MS/MS methods.
The concentrations are compared to those obtained after midazolam incubation at the same concentration but without UCB compound pre-incubation. The results are expressed as % of inhibition.

T1 sequence (P21728 whole entry): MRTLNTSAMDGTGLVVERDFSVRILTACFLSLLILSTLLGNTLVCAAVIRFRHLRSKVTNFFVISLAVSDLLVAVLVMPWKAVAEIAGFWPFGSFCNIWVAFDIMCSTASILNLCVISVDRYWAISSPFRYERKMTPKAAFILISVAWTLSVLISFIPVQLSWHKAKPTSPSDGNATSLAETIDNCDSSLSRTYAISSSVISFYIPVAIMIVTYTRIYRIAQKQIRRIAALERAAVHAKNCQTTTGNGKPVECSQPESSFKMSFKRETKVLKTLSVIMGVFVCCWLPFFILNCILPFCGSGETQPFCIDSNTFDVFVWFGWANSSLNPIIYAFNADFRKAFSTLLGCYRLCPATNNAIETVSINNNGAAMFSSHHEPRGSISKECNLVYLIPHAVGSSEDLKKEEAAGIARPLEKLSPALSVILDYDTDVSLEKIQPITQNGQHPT
T2 sequence (P14867 28-456): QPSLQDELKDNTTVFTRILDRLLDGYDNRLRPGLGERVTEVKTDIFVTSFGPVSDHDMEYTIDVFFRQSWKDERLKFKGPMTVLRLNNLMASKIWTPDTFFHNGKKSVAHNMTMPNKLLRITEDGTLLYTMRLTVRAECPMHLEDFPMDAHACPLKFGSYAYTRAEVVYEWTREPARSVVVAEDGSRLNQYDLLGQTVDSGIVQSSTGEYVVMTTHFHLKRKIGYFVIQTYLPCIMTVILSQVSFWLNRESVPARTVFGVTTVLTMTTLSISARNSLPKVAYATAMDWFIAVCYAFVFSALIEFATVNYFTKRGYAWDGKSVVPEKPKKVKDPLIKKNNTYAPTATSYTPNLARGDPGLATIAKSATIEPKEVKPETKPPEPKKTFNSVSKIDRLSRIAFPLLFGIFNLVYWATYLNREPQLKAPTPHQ
T2 sequence (P47870 25-512 limits assumed): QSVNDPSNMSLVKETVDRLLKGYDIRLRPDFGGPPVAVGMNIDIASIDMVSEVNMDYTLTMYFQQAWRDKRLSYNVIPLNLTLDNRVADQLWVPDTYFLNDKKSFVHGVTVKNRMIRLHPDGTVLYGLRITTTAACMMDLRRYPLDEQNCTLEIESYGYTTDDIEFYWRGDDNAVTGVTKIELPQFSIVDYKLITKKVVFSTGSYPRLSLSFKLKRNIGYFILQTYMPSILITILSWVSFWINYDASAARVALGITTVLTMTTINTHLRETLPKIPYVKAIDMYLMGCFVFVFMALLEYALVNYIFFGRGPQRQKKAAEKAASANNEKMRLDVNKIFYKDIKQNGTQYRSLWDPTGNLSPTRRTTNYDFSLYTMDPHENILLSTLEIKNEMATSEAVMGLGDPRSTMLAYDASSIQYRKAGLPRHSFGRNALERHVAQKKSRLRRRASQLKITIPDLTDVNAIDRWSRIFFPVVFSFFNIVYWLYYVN
T2 sequence (P18507 40-475): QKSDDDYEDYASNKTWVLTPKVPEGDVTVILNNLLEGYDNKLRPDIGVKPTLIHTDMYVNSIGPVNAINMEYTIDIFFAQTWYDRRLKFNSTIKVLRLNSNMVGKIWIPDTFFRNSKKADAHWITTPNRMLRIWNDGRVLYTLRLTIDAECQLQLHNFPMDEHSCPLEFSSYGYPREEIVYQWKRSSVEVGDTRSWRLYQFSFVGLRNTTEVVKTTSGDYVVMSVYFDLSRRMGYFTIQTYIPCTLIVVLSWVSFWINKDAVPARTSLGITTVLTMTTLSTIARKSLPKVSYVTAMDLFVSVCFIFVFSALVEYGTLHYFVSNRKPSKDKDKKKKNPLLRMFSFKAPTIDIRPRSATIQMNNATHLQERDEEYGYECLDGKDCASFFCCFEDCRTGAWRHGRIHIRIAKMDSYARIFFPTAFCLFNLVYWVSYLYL
T3 sequence (P08684 whole entry): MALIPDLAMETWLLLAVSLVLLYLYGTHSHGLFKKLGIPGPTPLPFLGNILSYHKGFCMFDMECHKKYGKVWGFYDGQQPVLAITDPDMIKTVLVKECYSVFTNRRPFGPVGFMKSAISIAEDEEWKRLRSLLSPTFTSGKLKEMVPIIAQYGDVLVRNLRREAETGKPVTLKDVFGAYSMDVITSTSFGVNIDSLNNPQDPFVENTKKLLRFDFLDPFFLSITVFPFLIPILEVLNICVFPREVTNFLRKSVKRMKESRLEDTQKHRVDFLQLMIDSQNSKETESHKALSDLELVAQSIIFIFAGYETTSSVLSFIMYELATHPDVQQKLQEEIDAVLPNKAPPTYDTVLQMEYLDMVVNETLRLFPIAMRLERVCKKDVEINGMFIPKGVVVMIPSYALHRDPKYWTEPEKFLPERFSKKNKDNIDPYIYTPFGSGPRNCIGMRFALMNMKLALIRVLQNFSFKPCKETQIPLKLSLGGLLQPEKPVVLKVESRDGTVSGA

Row | EC50 (dopamine D1 receptor) | inhibition at 10 µM [1] | inhibition at 15 min, 20 μM (CYP3A4) | % GABAA inhibition [1] | Structure (SMILES) | % CYP3A4 inhibition (CYP3A4)
1 | 0.0501 µM | 8.6% | 20 to 40% | – | COc1ccc(C#N)c(CC(=O)N2CC[C@@H]3[C@H](CCC[C@H]3C(O)C(F)F)[C@@H]2C)c1Cl (single isomer, unassigned) [Example 6-A] | –
2 | 0.2 µM | – | – | 10.9% | COc1ccc(C#N)c(CC(=O)N2CC[C@@H]3[C@H](CCC[C@H]3C(O)C(F)F)[C@@H]2C)c1Cl (single isomer, unassigned) [Example 6-B] | ++++ (A percentage of inhibition greater than about 20% and lower than or equal to about 40% is indicated by ++++.)
3 | 0.251 µM | – | 20 to 40% | 7.4% | COc1ccc(C#N)c(CC(=O)N2CC[C@@H]3[C@H](CCC[C@H]3C(C)(O)C(F)(F)F)[C@@H]2C)c1Cl (single isomer, unassigned) [Example 7-A] | –
4 | 0.0316 µM | 11.2% | 60 to 70% | – | COc1ccc(C#N)c(CC(=O)N2CC[C@H]3[C@H]([C@H](O)C(F)(F)F)CCC[C@@H]3[C@@H]2C)c1Cl [Example 1-A, 2-[2-[(1S,4aR,5R,8aS)-1-methyl-5-[(1S)-2,2,2-trifluoro-1-hydroxy-ethyl]-3,4,4a,5,6,7,8,8a-octahydro-1H-isoquinolin-2-yl]-2-oxo-ethyl]-3-chloro-4-methoxybenzonitrile] | –
5 | 0.398 µM | 4.9% | 40 to 60% | – | COc1ccc(C#N)c(CC(=O)N2CC[C@H]3[C@H]([C@@H](O)C(F)(F)F)CCC[C@@H]3[C@@H]2C)c1Cl [Example 1-B, 2-[2-[(1S,4aR,5R,8aS)-1-methyl-5-[(1R)-2,2,2-trifluoro-1-hydroxy-ethyl]-3,4,4a,5,6,7,8,8a-octahydro-1H-isoquinolin-2-yl]-2-oxo-ethyl]-3-chloro-4-methoxybenzonitrile] | –
6 | 0.0398 µM | 0% | 20 to 40% | – | COc1ccc(Cl)c(CC(=O)N2CC[C@H]3[C@H]([C@H](O)C(F)(F)F)CCC[C@@H]3[C@@H]2C)c1C#N [Example 2, 2-[2-[(1S,4aR,5R,8aS)-1-methyl-5-[(1S)-2,2,2-trifluoro-1-hydroxyethyl]-3,4,4a,5,6,7,8,8a-octahydro-1H-isoquinolin-2-yl]-2-oxoethyl]-3-chloro-6-methoxybenzonitrile] | –
7 | 0.0251 µM | 13.8% | 60 to 70% | – | COc1ncc(Cl)c(CC(=O)N2CC[C@H]3[C@H]([C@H](O)C(F)(F)F)CCC[C@@H]3[C@@H]2C)c1Cl [Example 3, 1-[(1S,4aR,5R,8aS)-1-methyl-5-[(1S)-2,2,2-trifluoro-1-hydroxy-ethyl]-3,4,4a,5,6,7,8,8a-octahydro-1H-isoquinolin-2-yl]-2-(3,5-dichloro-2-methoxypyridin-4-yl)ethanone] | –
8 | 0.0158 µM | 9.6% | 20 to 40% | – | C[C@H]1[C@H]2CCC[C@@H]([C@H](O)C(F)(F)F)[C@@H]2CCN1C(=O)Cc1c(Cl)cnc(CO)c1Cl [Example 12, 1-[(1S,4aR,5R,8aS)-1-methyl-5-[(1 S)-2,2,2-trifluoro-1-hydroxy-ethyl]-3,4,4a,5,6,7,8,8a-octahydro-1H-isoquinolin-2-yl]-2-[3,5-dichloro-2-(hydroxymethyl)-4-pyridyl]ethanone] | –

Second part, the molecule before the results:

Row | Structure (SMILES) | EC50 (dopamine D1 receptor) | inhibition at 10 µM [1] | inhibition at 15 min, 20 μM (CYP3A4) | % GABAA inhibition [1] | % CYP3A4 inhibition (CYP3A4)
9 | C[C@H]1[C@H]2CCCC([C@@H](O)C(F)(F)F)[C@@H]2CCN1C(=O)Cc1c(Cl)ccc2c1c(Cl)nn2C (single isomer, unassigned) [Example 8-A] | 0.0794 µM | – | 20 to 40% | 2.0% | –
10 | C[C@H]1[C@H]2CCCC([C@@H](O)C(F)(F)F)[C@@H]2CCN1C(=O)Cc1c(Cl)ccc2c1c(Cl)nn2C (single isomer, unassigned) [Example 8-B] | 0.126 µM | – | – | −1.2% | +++ (A percentage of inhibition greater than about 40% and lower than or equal to about 60% is indicated by +++.)
11 | CC(O)c1ncc(Cl)c(CC(=O)N2CC[C@H]3[C@H]([C@H](O)C(F)(F)F)CCC[C@@H]3[C@@H]2C)c1Cl (single isomer, unassigned) [Example 9-A] | 0.0398 µM | – | 20 to 40% | −14.1% | –
12 | CC(O)c1ncc(Cl)c(CC(=O)N2CC[C@H]3[C@H]([C@H](O)C(F)(F)F)CCC[C@@H]3[C@@H]2C)c1Cl (single isomer, unassigned) [Example 9-B] | 0.0251 µM | – | – | −8.4% | ++++ (A percentage of inhibition greater than about 20% and lower than or equal to about 40% is indicated by ++++.)
13 | C[C@H]1[C@H]2CCC[C@@H]([C@H](O)C(F)(F)F)[C@@H]2CCN1C(=O)Nc1c(Cl)cccc1Cl [Example 10, (1S,4aR,5R,8aS)—N-(2,6-dichlorophenyl)-1-methyl-5-[(1S)-2,2,2-trifluoro-1-hydroxy-ethyl]-3,4,4a,5,6,7,8,8a-octahydro-1H-isoquinoline-2-carboxamide] | 0.0126 µM | 8.5% | 20 to 40% | – | –
14 | C[C@H]1[C@H]2CCC[C@@H]([C@H](O)C(F)(F)F)[C@@H]2CCN1C(=O)Cc1c(Cl)ccc2nnc(Cl)n12 [Example 11, 1-[(1 S,4aR,5R,8aS)-1-methyl-5-[(1 S)-2,2,2-trifluoro-1-hydroxy-ethyl]-3,4,4a,5,6,7,8,8a-octahydro-1H-isoquinolin-2-yl]-2-(3,6-dichloro-[1,2,4]triazolo[4,3-a]pyridin-5-yl)ethanone] | 0.0631 µM | 6% | 70 to 80% | – | –

— US20240043400A1, “Octahydroisoquinolinyl Derivatives” (UCB Biopharma SRL, priority 2020, published 2024)
